From the supplement of paper PMC10307832

Assays:
Experiment in all cases: relative viability (nuclei count vs DMSO), 5 days (fraction); higher = more cells survive
[1] = compound: CN1C=C(C2=CC=CC=C21)/C=C\3/C4=C(C=CC=N4)NC3=O + CC(C)C[C@H](NC(=O)[C@H](Cc1ccccc1)NC(=O)c1cnccn1)B(O)O [Bortezomib] (partner 0.002 µM)
How it was run: (§1)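 Five library-drug doses in √10 steps were combined with a fixed anchor-drug dose, or a single drug was given alone, by pin tool to lung cancer cell lines in 1536-well plates the day after seeding. Nuclei were stained and counted after 5 days. Relative viability is the nuclei count in treated wells over that in vehicle wells, taken as the median of duplicate plates.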

Trametinib + AZD7762 = compound: CC(=O)Nc1cccc(-n2c(=O)n(C3CC3)c(=O)c3c(Nc4ccc(I)cc4F)n(C)c(=O)c(C)c32)c1 [Trametinib] + NC(=O)Nc1cc(-c2cccc(F)c2)sc1C(=O)N[C@H]1CCCNC1 [AZD7762] (partner 0.2 µM)
How it was run: as §1

Trametinib + Foretinib = compound: CC(=O)Nc1cccc(-n2c(=O)n(C3CC3)c(=O)c3c(Nc4ccc(I)cc4F)n(C)c(=O)c(C)c32)c1 [Trametinib] + COc1cc2c(Oc3ccc(NC(=O)C4(C(=O)Nc5ccc(F)cc5)CC4)cc3F)ccnc2cc1OCCCN1CCOCC1 [Foretinib] (partner 0.25 µM)
How it was run: as §1

[2] = compound: CN1C=C(C2=CC=CC=C21)/C=C\3/C4=C(C=CC=N4)NC3=O + CS(=O)(=O)CCNCc1ccc(-c2ccc3ncnc(Nc4ccc(OCc5cccc(F)c5)c(Cl)c4)c3c2)o1 [Lapatinib] (partner 2 µM)
How it was run: as §1

## NCI-H2347
[1]; first compound 0.02 µM
  relative viability: 0.976
[1]; first compound 0.06325 µM
  relative viability: 1.01
[1]; first compound 0.2 µM
  relative viability: 0.906
[1]; first compound 0.6325 µM
  relative viability: 0.615
[1]; first compound 2 µM
  relative viability: 1
Trametinib + AZD7762; first compound 0.0025 µM
  relative viability: 0.642
Trametinib + AZD7762; first compound 0.007906 µM
  relative viability: 0.41
Trametinib + AZD7762; first compound 0.025 µM
  relative viability: 0.296
Trametinib + AZD7762; first compound 0.07906 µM
  relative viability: 0.29
Trametinib + AZD7762; first compound 0.25 µM
  relative viability: 0.296
Trametinib + Foretinib; first compound 0.0025 µM
  relative viability: 1.08
Trametinib + Foretinib; first compound 0.007906 µM
  relative viability: 0.43
Trametinib + Foretinib; first compound 0.025 µM
  relative viability: 0.31
Trametinib + Foretinib; first compound 0.07906 µM
  relative viability: 0.46
Trametinib + Foretinib; first compound 0.25 µM
  relative viability: 0.387
[2]; first compound 0.02 µM
  relative viability: 0.953
[2]; first compound 0.06325 µM
  relative viability: 1.02
[2]; first compound 0.2 µM
  relative viability: 0.876
[2]; first compound 0.6325 µM
  relative viability: 0.793
[2]; first compound 2 µM
  relative viability: 0.881

## NCI-H650
[1]; first compound 0.02 µM
  relative viability: 0.702
[1]; first compound 0.06325 µM
  relative viability: 0.859
[1]; first compound 0.6325 µM
  relative viability: 0.725
[1]; first compound 2 µM
  relative viability: 0.879
Trametinib + AZD7762; first compound 0.0025 µM
  relative viability: 1.06
Trametinib + AZD7762; first compound 0.007906 µM
  relative viability: 1.15
Trametinib + AZD7762; first compound 0.025 µM
  relative viability: 1.03
Trametinib + AZD7762; first compound 0.07906 µM
  relative viability: 0.614
Trametinib + AZD7762; first compound 0.25 µM
  relative viability: 0.655
Trametinib + Foretinib; first compound 0.0025 µM
  relative viability: 1.1
Trametinib + Foretinib; first compound 0.007906 µM
  relative viability: 1.17
Trametinib + Foretinib; first compound 0.025 µM
  relative viability: 1.1
Trametinib + Foretinib; first compound 0.07906 µM
  relative viability: 1.17
Trametinib + Foretinib; first compound 0.25 µM
  relative viability: 0.839
[2]; first compound 0.02 µM
  relative viability: 0.824
[2]; first compound 0.06325 µM
  relative viability: 0.738
[2]; first compound 0.6325 µM
  relative viability: 0.754
[2]; first compound 2 µM
  relative viability: 0.82

## NCI-H1975
[1]; first compound 0.02 µM
  relative viability: 0.431
[1]; first compound 0.06325 µM
  relative viability: 0.36
[1]; first compound 0.2 µM
  relative viability: 0.344
[1]; first compound 0.6325 µM
  relative viability: 0.322
[1]; first compound 2 µM
  relative viability: 0.317
Trametinib + AZD7762; first compound 0.0025 µM
  relative viability: 0.69
Trametinib + AZD7762; first compound 0.007906 µM
  relative viability: 0.551
Trametinib + AZD7762; first compound 0.025 µM
  relative viability: 0.473
Trametinib + AZD7762; first compound 0.07906 µM
  relative viability: 0.421
Trametinib + AZD7762; first compound 0.25 µM
  relative viability: 0.401
Trametinib + Foretinib; first compound 0.0025 µM
  relative viability: 0.973
Trametinib + Foretinib; first compound 0.007906 µM
  relative viability: 0.87
Trametinib + Foretinib; first compound 0.025 µM
  relative viability: 0.839
Trametinib + Foretinib; first compound 0.07906 µM
  relative viability: 0.334
Trametinib + Foretinib; first compound 0.25 µM
  relative viability: 0.385
[2]; first compound 0.02 µM
  relative viability: 0.839
[2]; first compound 0.06325 µM
  relative viability: 0.929
[2]; first compound 0.2 µM
  relative viability: 0.775
[2]; first compound 0.6325 µM
  relative viability: 0.903
[2]; first compound 2 µM
  relative viability: 0.77

## NCI-H2126
[1]; first compound 0.02 µM
  relative viability: 1.19
[1]; first compound 0.06325 µM
  relative viability: 1.15
[1]; first compound 0.2 µM
  relative viability: 1.09
[1]; first compound 0.6325 µM
  relative viability: 1.16
[1]; first compound 2 µM
  relative viability: 1.12
Trametinib + AZD7762; first compound 0.0025 µM
  relative viability: 1.05
Trametinib + AZD7762; first compound 0.007906 µM
  relative viability: 0.929
Trametinib + AZD7762; first compound 0.025 µM
  relative viability: 0.632
Trametinib + AZD7762; first compound 0.07906 µM
  relative viability: 0.766
Trametinib + AZD7762; first compound 0.25 µM
  relative viability: 0.753
Trametinib + Foretinib; first compound 0.0025 µM
  relative viability: 1.01
Trametinib + Foretinib; first compound 0.007906 µM
  relative viability: 1.05
Trametinib + Foretinib; first compound 0.025 µM
  relative viability: 0.994
Trametinib + Foretinib; first compound 0.07906 µM
  relative viability: 1
Trametinib + Foretinib; first compound 0.25 µM
  relative viability: 0.816
[2]; first compound 0.02 µM
  relative viability: 0.678
[2]; first compound 0.06325 µM
  relative viability: 0.796
[2]; first compound 0.2 µM
  relative viability: 0.671
[2]; first compound 0.6325 µM
  relative viability: 0.748
[2]; first compound 2 µM
  relative viability: 0.674

## NCI-H2087
[1]; first compound 0.02 µM
  relative viability: 0.812
[1]; first compound 0.06325 µM
  relative viability: 0.815
[1]; first compound 0.2 µM
  relative viability: 0.882
[1]; first compound 0.6325 µM
  relative viability: 0.839
[1]; first compound 2 µM
  relative viability: 0.836
Trametinib + AZD7762; first compound 0.0025 µM
  relative viability: 1.26
Trametinib + AZD7762; first compound 0.007906 µM
  relative viability: 1.38
Trametinib + AZD7762; first compound 0.025 µM
  relative viability: 0.633
Trametinib + AZD7762; first compound 0.07906 µM
  relative viability: 0.313
Trametinib + AZD7762; first compound 0.25 µM
  relative viability: 0.324
Trametinib + Foretinib; first compound 0.0025 µM
  relative viability: 0.803
Trametinib + Foretinib; first compound 0.007906 µM
  relative viability: 0.488
Trametinib + Foretinib; first compound 0.025 µM
  relative viability: 0.343
Trametinib + Foretinib; first compound 0.07906 µM
  relative viability: 0.211
Trametinib + Foretinib; first compound 0.25 µM
  relative viability: 0.205
[2]; first compound 0.02 µM
  relative viability: 1.28
[2]; first compound 0.06325 µM
  relative viability: 0.757
[2]; first compound 0.2 µM
  relative viability: 0.968
[2]; first compound 0.6325 µM
  relative viability: 0.949
[2]; first compound 2 µM
  relative viability: 1.07
